Assay results published in patent US20250241926A1, “HETEROCYCLIC COMPOUNDS FOR USE IN THE TREATMENT OF CANCER” (ARTIOS PHARMA LIMITED, priority 2021, published 2025).

These compounds were tested against T1, Human Polθ polymerase domain (aa1820-2590) (Homo sapiens, UniProt O75417) (assay: Polθ Polymerase Domain Kinact/Kl Assay (PicoGreen)). Conditions: covalent inhibitors, kobs vs [I] fit, 0.8 nM Polθ, 100 nM DNA substrate.
T1 construct: Human Polθ polymerase domain (aa1820-2590) was expressed in E. Coli; made in house; host or cells: E. coli
T1 sequence (O75417 1820-2590): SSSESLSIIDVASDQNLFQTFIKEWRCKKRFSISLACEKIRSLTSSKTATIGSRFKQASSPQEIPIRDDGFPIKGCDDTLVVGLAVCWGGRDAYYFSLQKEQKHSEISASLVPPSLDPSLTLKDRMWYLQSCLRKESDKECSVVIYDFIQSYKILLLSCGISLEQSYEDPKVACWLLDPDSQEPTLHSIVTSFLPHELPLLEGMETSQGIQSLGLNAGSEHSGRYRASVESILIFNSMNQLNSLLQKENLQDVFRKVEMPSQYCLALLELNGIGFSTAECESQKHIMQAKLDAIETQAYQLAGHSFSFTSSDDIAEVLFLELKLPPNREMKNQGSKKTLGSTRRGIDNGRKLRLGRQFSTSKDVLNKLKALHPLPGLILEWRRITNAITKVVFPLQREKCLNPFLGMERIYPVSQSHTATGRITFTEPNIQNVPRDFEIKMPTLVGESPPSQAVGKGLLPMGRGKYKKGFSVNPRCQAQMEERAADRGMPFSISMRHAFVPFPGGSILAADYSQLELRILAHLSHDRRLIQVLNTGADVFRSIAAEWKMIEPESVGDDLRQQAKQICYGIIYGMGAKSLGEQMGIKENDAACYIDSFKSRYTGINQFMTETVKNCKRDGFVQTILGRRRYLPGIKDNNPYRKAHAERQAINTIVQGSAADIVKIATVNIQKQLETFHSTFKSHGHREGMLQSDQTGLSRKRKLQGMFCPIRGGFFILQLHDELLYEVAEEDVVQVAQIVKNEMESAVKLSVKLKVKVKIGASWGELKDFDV
Type: biochemical
Protocol: Polθ Polymerase Domain Kinact/Kl Assay
A PicoGreen assay was used to measure the Kinact and Kl values of covalent compounds that inhibit the activity of Polθ in vitro.
Human Polθ polymerase domain (aa1820-2590) was expressed in E. Coli, purified, aliquoted and stored at −80° C. until required. Polθ substrate was generated from a 1.2:1 mix of DNA II Short to DNA II Long to give a final concentration of […] substrate in annealing buffer (20 mM Tris pH 7.5, 50 mM NaCl). The substrate was heated in 50 mL aliquots to 95° C. in a heating block for 5 min before the heating block switched off, the reaction left to cool to rt and stored at −20° C. until required.
Assay measurements were performed with 1× buffer comprising 25 mM Tris pH 7.5, 12.5 mM NaCl, […], 5% (v/v) glycerol, 0.01% v/v Triton x-100, 0.1 mg/ml BSA, 1 mM DTT. Test compounds were prepared by dilution in 100% DMSO to give a 12 μM intermediate stock of each (100× final top concentration). 100 nL of 23× 1:1.5-fold serial dilutions and a DMSO only control were dispensed using the Tecan dispenser into Greiner 384 well black low volume plates (product code 784076). DMSO concentration was maintained at 1% of the final assay volume by back filling with DMSO.
2× Working stock of substrate (200 nM of DNA substrate and […] dNTPs) and enzyme (1.4 nM Polθ) were made up in assay buffer. 5 μL/well of both enzyme and substrate 2× solutions were dispensed using a Tempest dispenser (Formulatrix) into assay plates that had been pre-dispensed with compound to give a final assay concentration of 100 nM DNA substrate, […] dNTPs and 0.8 nM Polθ. To stop the reaction, […] of a solution containing 25 mM Tris-HCl pH 7.5 and 20 mM EDTA was added at […] (t=0, 2.5, 5, 7.5, 10, 12.5, 15, 20, 25, 30, 35, 40, 45, 50, 55 and 60 min) using the Tempest's time delay function. The plates were covered during the time course to prevent evaporation. After completing the assay, 5 μL of detection reagent (25 mM Tris-HCl pH 7.5 and 2.5% (v/v) PicoGreen) was dispensed into the wells using a Tempest liquid handler (Formulatrix) and plates subsequently read on the CLARIOstar Plus (BMG Labtech) using the default optical settings for fluorescein and the auto gain/focus settings.
All data analysis was carried out using GraphPad Prism V. 8 (GraphPad Software Inc, San Diego, CA) Time course data for each inhibitor concentration was fitted to equation 1 to determine kobs values.^1 Any time points where the control (DMSO alone) reaction was no longer linear were excluded from the analysis.
A secondary plot of kobs vs [I] is used to determine the Kinact and Kl parameters (for a 2-step covalent inhibitor) by fitting to equation 2.1
[formula] • 1) Evaluation of Enzyme Inhibitors in Drug Discovery (Ch9), R. A Copeland, Wiley, 2nd Edition 2013.

| Compound | kinact/KI |
| --- | --- |
| C=CC(=O)N1CC(O[C@@H]2CN(CCN3CC[C@H](Nc4nc(C)cc(C(F)(F)F)c4C#N)C(=O)N(C)c4cccc(F)c43)C[C@H]2O)C1 [Example 65A, 2-(((S)-6-(2-((3S/R,4S/R)-3-((1-Acryloylazetidin-3-yl)oxy)-4-hydroxypyrrolidin-1-yl)ethyl)-7-fluoro-1-methyl-2-oxo-1,2,3,4,5,6-hexahydrobenzo[b][1,4]diazocin-3-yl)amino)-6-methyl-4-(trifluoromethyl)nicotinonitrile] | 460000 M⁻¹ s⁻¹ |
| 2-(((S)-6-(2-((1S,4S)-5- (1-Acryloylazetidin-3-yl)- 2,5-diazabicyclo[2.2.1] heptan-2-yl)ethyl)-7- fluoro-1-methyl-2-oxo- 1,2,3,4,5,6-hexahydro- benzo[b][1,4]diazocin-3- yl)amino)-6-methyl-4- (trifluoromethyl)nicotino- nitrile [Example 19] | 160000 M⁻¹ s⁻¹ |

Same assay, conditions: covalent inhibitors, kobs vs [I] fit, 0.8 nM Polθ, 100 nM DNA substrate, read-out: Kinact/KI

| Compound | kinact/KI |
| --- | --- |
| C=CC(=O)N1CC2(CCN(CCN3CC[C@H](Nc4nc(C)cc(C(F)(F)F)c4C#N)C(=O)N(C)c4cccc(F)c43)CC2)C1 [Example 8, (S)-2-((6-(2-(2-Acryloyl-2,7-diazaspiro[3.5]nonan-7-yl)ethyl)-7-fluoro-1-methyl-2-oxo-1,2,3,4,5,6-hexahydrobenzo[b][1,4]diazocin-3-yl)amino)-6-methyl-4-(trifluorometh-yl)nicotinonitrile] | 490000 M⁻¹ s⁻¹ |
| C#CCN1CCN(CCN2CC[C@H](Nc3nc(C)cc(C(F)(F)F)c3C#N)C(=O)N(C)c3cccc(F)c32)CC12CN(C(=O)/C=C/CN(C)C)C2 [Example 26, (S,E)-2-((6-(2-(2-(4-(Dimethylamino)but-2-enoyl)-5-(prop-2-yn-1-yl)-2,5,8-triazaspiro[3.5]nonan-8-yl)ethyl)-7-fluoro-1-methyl-2-oxo-1,2,3,4,5,6-hexahydrobenzo[b][1,4]diazocin-3-yl)amino)-6-methyl-4-(trifluoromethyl)nicotinonitrile] | 2.1e+06 M⁻¹ s⁻¹ |
| C=CC(=O)N1CC2(CN(CCN3CC[C@H](Nc4nc(C)cc(C(F)(F)F)c4C#N)C(=O)N(C)c4ccccc43)CCO2)C1 [Example 21, (S)-2-((6-(2-(2-Acryloyl-5-oxa-2,8-diazaspiro[3.5]nonan-8-yl)ethyl)-1-meth-yl-2-oxo-1,2,3,4,5,6-hexa-hydrobenzo[b][1,4]diazocin-3-yl)amino)-6-methyl-4-(trifluorometh-yl)nicotinonitrile] | 1.2e+06 M⁻¹ s⁻¹ |
| Cc1cc(C(F)(F)F)c(C#N)c(N[C@H]2CCN(CCN3CCOC4(C3)CN(C(=O)/C=C/CN(C)C)C4)c3c(F)cccc3N(C)C2=O)n1 [Example 1, (S,E)-2-((6-(2-(2-(4-(Dimethylamino)but-2-enoyl)-5-oxa-2,8-diazaspiro[3.5]nonan-8-yl)ethyl)-7-fluoro-1-methyl-2-oxo-1,2,3,4,5,6-hexahydrobenzo[b][1,4]diazocin-3-yl)amino)-6-methyl-4-(trifluoromethyl)nicotinonitrile] | 3.1e+06 M⁻¹ s⁻¹ |
| C=CC(=O)N1CC2(CC(CN3CC[C@H](Nc4nc(C)cc(C(F)(F)F)c4C#N)C(=O)N(C)c4ccccc43)C2)C1 [Example 52, (S)-2-((6-((2-Acryloyl-2-azaspiro[3.3]heptan-6-yl)methyl)-1-methyl-2-oxo-1,2,3,4,5,6-hexahydrobenzo[b][1,4]diazocin-3-yl)amino)-6-methyl-4-(trifluoromethyl)nicotinonitrile] | 150000 M⁻¹ s⁻¹ |
| CO[C@H]1CN(C(=O)/C=C/CN(C)C)C[C@@H]1COCCN1CC[C@H](Nc2nc(C)cc(C(F)(F)F)c2C#N)C(=O)N(C)c2cccc(F)c21 (relative stereo) [Example 48, 2-(((S)-6-(2-(((rel-3R,4R)-1-((E)-4-(Dimethylamino)-but-2-enoyl)-4-methoxypyrroli-din-3-yl)methoxy)-ethyl)-7-fluoro-1-methyl-2-oxo-1,2,3,4,5,6-hexa-hydrobenzo[b] [1,4]diazocin-3-yl)amino)-6-meth-yl-4-(trifluoro-methyl)nicotino-nitrile] | 680000 M⁻¹ s⁻¹ |
| Cc1cc(C(F)(F)F)c(C#N)c(N[C@H]2CCN(CCN3CC4(C3)CN(C(=O)/C=C/CN(C)C)C4)c3ccccc3N(C)C2=O)n1 [Example 4, (S,E)-2-((6-(2-(6-(4-(Dimethylamino)but-2-enoyl)-2,6-diazaspiro[3.3]heptan-2-yl)ethyl)-1-methyl-2-oxo-1,2,3,4,5,6-hexahydrobenzo[b][1,4]diazocin-3-yl)amino)-6-methyl-4-(trifluoromethyl)nicotinonitrile] | 300000 M⁻¹ s⁻¹ |
| Cc1cc(C(F)(F)F)c(C#N)c(N[C@H]2CCN(CCOC3CN(C(=O)/C=C/CN(C)C)C3)c3ccccc3N(C)C2=O)n1 [Example 50, (S,E)-2-((6-(2-((1-(4-(Dimethylamino)but-2-enoyl)azetidin-3-yl)oxy)ethyl)-1-methyl-2-oxo-1,2,3,4,5,6-hexahydrobenzo[b][1,4]diazocin-3-yl)amino)-6-methyl-4-(trifluoromethyl)nicotinonitrile] | 110000 M⁻¹ s⁻¹ |
| C=CC(=O)N1CC2(CN(CCN3CC[C@H](Nc4nc(C)cc(C(F)(F)F)c4C#N)C(=O)N(C)c4cccc(F)c43)CCN2)C1 [Example 23, (S)-2-((6-(2-(2-Acryloyl-2,5,8-triazaspiro[3.5]nonan-8-yl)ethyl)-7-fluoro-1-methyl-2-oxo-1,2,3,4,5,6-hexahydrobenzo[b][1,4]diazocin-3-yl)amino)-6-methyl-4-(trifluoromethyl)nicotinonitrile] | 940000 M⁻¹ s⁻¹ |
| C=CC(=O)N1CC(c2nnc(CN3CC[C@H](Nc4nc(C)cc(C(F)(F)F)c4C#N)C(=O)N(C)c4cccc(F)c43)[nH]2)C1 [Example 68, (S)-2-((6-((5-(1-Acryloylazetidin-3-yl)-4H-1,2,4-triazol-3-yl)methyl)-7-fluoro-1-methyl-2-oxo-1,2,3,4,5,6-hexahydrobenzo[b][1,4]diazocin-3-yl)amino)-6-methyl-4-(trifluoromethyl)nicotinonitrile] | 130000 M⁻¹ s⁻¹ |
| C=CC(=O)N1CCN(CC(O)CN2CC[C@H](Nc3nc(C)cc(C(F)(F)F)c3C#N)C(=O)N(C)c3ccccc32)CC1 (stereo partly drawn) [Example 35, 2-(((3S)-6-(3-(4-Acryloylpiperazin-1-yl)-2-hydroxypropyl)-1-methyl-2-oxo-1,2,3,4,5,6-hexahydrobenzo[b][1,4]diazocin-3-yl)amino)-6-methyl-4-(trifluoromethyl)nicotinonitrile] | 340000 M⁻¹ s⁻¹ |
| Cc1cc(C(F)(F)F)c(C#N)c(N[C@H]2CCN(CCN3CCOC4(C3)CN(C(=O)/C=C/CN(C)C)C4)c3ccccc3N(C)C2=O)n1 [Example 3, (S,E)-2-((6-(2-(2-(4-(Dimethylamino)but-2-enoyl)-5-oxa-2,8-diazaspiro[3.5]nonan-8-yl)ethyl)-1-methyl-2-oxo-1,2,3,4,5,6-hexahydrobenzo[b][1,4]diazocin-3-yl)amino)-6-methyl-4-(trifluoromethyl)nicotinonitrile] | 1.1e+06 M⁻¹ s⁻¹ |
